The pIC50 is the negative decadic logarithm of the IC50, by convention in mol/L. Higher therefore signals a small IC50.

pIC50: −log10 of the molar value.

The values that follow come from patent US10189810B2, “Pyrazolyl-substituted pyridone compounds as serine protease inhibitors” (VERSEON CORPORATION, priority 2014, dated 2019).

The target of test [1] is T1, Human thrombin (Homo sapiens, UniProt P00734).
T1 construct: Thrombin (fIIa, the active form of prothrombin) is another serine protease; purchased Haematologic Technologies Inc
The experiment in a line: thrombin protease inhibition assay (chromogenic substrate S-2238). It is filed as biochemical. The conditions noted are these: 3 nM thrombin, 125 μM S-2238, 10 min pre-incubation, RT, read at 405 nm. On the procedure:
The thrombin activity reported herein (e.g., Table A) was obtained as follows. […] Thrombin was assayed in buffer containing 0.05 M Tris (pH 7.4), 0.015 M NaCl and 0.01% PEG-8000. The final concentration of enzyme used was 3 nM thrombin. […] All assays were performed in 96-well microtiter plates at room temperature (RT). […] Inhibitor IC50 values were determined by adding test compound as ten point, three-fold serial dilutions in buffer solution, as known in the art. The plate was read at 10 minutes after substrate addition. The IC50 was calculated by plotting the percent (%) inhibition against compound concentration and fitting the data to a constrained four parameter sigmoidal curve, as known in the art.

Test [2] addresses T2, Human KLKB1 protein (Homo sapiens, UniProt P03952).
T2 construct: purchased Enzyme Research Labs
The experiment in a line: KLKB1 kallikrein protease inhibition assay (chromogenic substrate S-2302). It is filed as biochemical. As to conditions: 3 nM KLKB1, 250 μM S-2302, 10 min pre-incubation, RT, read at 405 nm. On the procedure:
The KLKB1 kallikrein activity reported herein (e.g., Table A) was obtained as follows. Human KLKB1 protein was obtained from Enzyme Research Labs. The chromogenic substrate S-2302 was obtained from DiaPharma. KLKB1 was assayed in buffer containing 0.05 M Tris (pH 7.4), 0.01 M NaCl and 0.2% w/v PEG-8000. The final concentration of enzyme used was 3 nM KLKB1. The final concentration of substrate used was 250 μM S-2302 for KLKB1. All assays were performed in 96-well microtiter plates at room temperature (RT). […] The plate was read at 10 minutes after substrate addition. The IC50 was calculated by plotting the percent (%) inhibition against compound concentration and fitting the data to a constrained four parameter sigmoidal curve, as known in the art.

In test [3] the test system is malignant breast tumors. The conditions noted are these: treated mice, cited from earlier work.

T2 sequence (P03952 391-638 limits assumed): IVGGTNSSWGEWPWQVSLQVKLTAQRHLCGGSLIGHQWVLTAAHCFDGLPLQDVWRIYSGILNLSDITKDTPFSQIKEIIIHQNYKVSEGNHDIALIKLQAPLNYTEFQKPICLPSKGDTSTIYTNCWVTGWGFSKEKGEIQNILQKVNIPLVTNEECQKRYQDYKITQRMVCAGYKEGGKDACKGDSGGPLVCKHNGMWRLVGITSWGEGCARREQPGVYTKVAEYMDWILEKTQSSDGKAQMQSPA
T2 sequence (P03952 20-390 partner limits assumed): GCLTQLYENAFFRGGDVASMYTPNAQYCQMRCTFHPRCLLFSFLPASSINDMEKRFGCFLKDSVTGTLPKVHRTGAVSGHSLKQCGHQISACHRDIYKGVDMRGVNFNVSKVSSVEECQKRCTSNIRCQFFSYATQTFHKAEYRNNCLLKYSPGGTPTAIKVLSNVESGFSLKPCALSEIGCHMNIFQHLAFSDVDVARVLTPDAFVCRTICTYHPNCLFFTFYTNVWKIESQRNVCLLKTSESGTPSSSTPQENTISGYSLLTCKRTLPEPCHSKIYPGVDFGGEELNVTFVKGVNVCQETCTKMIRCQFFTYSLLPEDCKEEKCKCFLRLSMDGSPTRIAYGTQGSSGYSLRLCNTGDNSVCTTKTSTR

`O=c1ccc(-c2cc(NCc3ccc(Cl)s3)[nH]n2)c[nH]1` [Entry 38, 5-(5-[(5-chlorothiophen-2-yl)methyl]amino-1H-pyrazol-3-yl)-1,2-dihydropyridin-2-one]: the pIC50 in test [1] and in test [2] was below 4.00 in each case.

Consider `O=C(Cn1ccc(-c2cc(NCc3ccc(Cl)s3)n(C(=O)c3ccoc3)n2)cc1=O)N1CCOCC1` [Entry 20, 4-(5-[(5-chlorothiophen-2-yl)methyl]amino-1-(furan-3-carbonyl)-1H-pyrazol-3-yl)-1-[2-(morpholin-4-yl)-2-oxoethyl]-1,2-dihydropyridin-2-one], for which the figures for the pIC50 in test [1] and in test [2] were 6.00 to 7.00 and 5.00 to 6.00, respectively.

Turning to `CC(C)(C)C(=O)n1nc(-c2cc(N3CCOCC3)c[nH]c2=O)cc1NCc1ccc(Cl)s1` [Entry 1, 3-(5-[(5-chlorothiophen-2-yl)methyl]amino-1-(2,2-dimethylpropanoyl)-1H-pyrazol-3-yl)-5-(morpholin-4-yl)-1,2-dihydropyridin-2-one], the pIC50 in test [1] was above 7.00; in test [2], 5.00 to 6.00.

In the case of `CC(C)(C)C(=O)n1nc(-c2cc(N3CCOCC3)[nH]c(=O)c2)cc1NCc1ccc(Cl)s1` [Entry 13, 4-(5-[(5-chlorothiophen-2-yl)methyl]amino-1-(2,2-dimethylpropanoyl)-1H-pyrazol-3-yl)-6-(morpholin-4-yl)-1,2-dihydropyridin-2-one], the pIC50 in test [1] was 5.00 to 6.00; in test [2], below 4.00.

Regarding `O=C(c1ccsc1)n1nc(-c2ccn(CCN3CCOCC3)c(=O)c2)cc1NCc1ccc(Cl)s1` [Entry 27, 4-(5-[(5-chlorothiophen-2-yl)methyl]amino-1-(thiophene-3-carbonyl)-1H-pyrazol-3-yl)-1-[2-(morpholin-4-yl)ethyl]-1,2-dihydropyridin-2-one], the pIC50 in test [1] is above 7.00; in test [2], 6.00 to 7.00.

On to `CCCCCCOC(=O)N=C(N)c1ccc(NCc2nc3cc(C(=O)N(CCC(=O)OCC)c4ccccn4)ccc3n2C)cc1` [dabigatran etexilate], for which the “reduction in tumor volume” value in test [3] (at 4 weeks) was 50%. Moreover, the “reduced tumor cells in the blood and liver micrometastases” value in test [3] was 50-60%.

For `COc1ccccc1C(=O)n1nc(-c2c[nH]c(=O)c(Br)c2)cc1NCc1ccc(Cl)s1` [Entry 5, 3-bromo-5-(5-[(5-chlorothiophen-2-yl)methyl]amino-1-(2-methoxybenzoyl)-1H-pyrazol-3-yl)-1,2-dihydropyridin-2-one], the pIC50 in test [1] was 6.00 to 7.00; in test [2], 5.00 to 6.00.

Regarding `O=C(c1ccoc1)n1nc(-c2ccc(Br)c(=O)[nH]2)cc1NCc1ccc(Cl)s1` [Entry 7, 3-bromo-6-(5-[(5-chlorothiophen-2-yl)methyl]amino-1-(furan-3-carbonyl)-1H-pyrazol-3-yl)-1,2-dihydropyridin-2-one], the pIC50 is 6.00 to 7.00 in test [1] and 4.00 to 5.00 in test [2].

Regarding `O=C(c1ccsc1)n1nc(-c2cc(-c3ccccc3)[nH]c(=O)c2)cc1NCc1ccc(Cl)s1` [Entry 28, 4-(5-[(5-chlorothiophen-2-yl)methyl]amino-1-(thiophene-3-carbonyl)-1H-pyrazol-3-yl)-6-phenyl-1,2-dihydropyridin-2-one], the pIC50 in test [1] and in test [2] was below 4.00 throughout.

With `O=C(c1ccoc1)n1nc(-c2cc[nH]c(=O)c2)cc1NCc1ccc(Cl)s1` [Entry 16, 4-(5-[(5-chlorothiophen-2-yl)methyl]amino-1-(furan-3-carbonyl)-1H-pyrazol-3-yl)-1,2-dihydropyridin-2-one], the pIC50 in test [1] was above 7.00; in test [2] it was 5.00 to 6.00.

On to `COc1ccccc1C(=O)n1nc(-c2cc(-c3cccnc3)c[nH]c2=O)cc1NCc1ccc(Cl)s1` [Entry 3, 3-(5-[(5-chlorothiophen-2-yl)methyl]amino-1-(2-methoxybenzoyl)-1H-pyrazol-3-yl)-5-(pyridin-3-yl)-1,2-dihydropyridin-2-one], for which the pIC50 in test [1] and in test [2] was 6.00 to 7.00 each time.

In the case of `CC(C)(C)C(=O)n1nc(-c2cc(-c3ccccc3)c[nH]c2=O)cc1NCc1ccc(Cl)s1` [Entry 2, 3-(5-[(5-chlorothiophen-2-yl)methyl]amino-1-(2,2-dimethylpropanoyl)-1H-pyrazol-3-yl)-5-phenyl-1,2-dihydropyridin-2-one], the figures for the pIC50 in test [1] and in test [2] were above 7.00 and 4.00 to 5.00, respectively.

As for `O=C(c1ccco1)n1nc(-c2cc(-c3cccnc3)[nH]c(=O)c2)cc1NCc1ccc(Cl)s1` [Entry 15, 4-(5-[(5-chlorothiophen-2-yl)methyl]amino-1-(furan-2-carbonyl)-1H-pyrazol-3-yl)-6-(pyridin-3-yl)-1,2-dihydropyridin-2-one], the pIC50 in test [1] was 5.00 to 6.00; in test [2] it was below 4.00.

`CC(C)(C)C(=O)n1nc(-c2cc[nH]c(=O)c2)cc1NCc1ccc(Cl)s1` [Entry 8, 4-(5-[(5-chlorothiophen-2-yl)methyl]amino-1-(2,2-dimethylpropanoyl)-1H-pyrazol-3-yl)-1,2-dihydropyridin-2-one]: the results for the pIC50 in test [1] and in test [2] were above 7.00 and 5.00 to 6.00, respectively.

Take `O=c1cccc(-c2cc(NCc3ccc(Cl)s3)[nH]n2)[nH]1` [Entry 47, 6-(5-[(5-chlorothiophen-2-yl)methyl]amino-1H-pyrazol-3-yl)-1,2-dihydropyridin-2-one]: the pIC50 in test [1] and in test [2] was below 4.00 each time.

Consider `O=C(c1ccsc1)n1nc(-c2ccc(=O)[nH]c2)cc1NCc1ccc(Cl)s1` [Entry 37, 5-(5-[(5-chlorothiophen-2-yl)methyl]amino-1-(thiophene-3-carbonyl)-1H-pyrazol-3-yl)-1,2-dihydropyridin-2-one], for which the pIC50 in test [1] was 6.00 to 7.00; in test [2], 5.00 to 6.00.

`COCCn1ccc(-c2cc(NCc3ccc(Cl)s3)n(C(=O)c3ccoc3)n2)cc1=O` [Entry 17, 4-(5-[(5-chlorothiophen-2-yl)methyl]amino-1-(furan-3-carbonyl)-1H-pyrazol-3-yl)-1-(2-methoxyethyl)-1,2-dihydropyridin-2-one]: the pIC50 in test [1] is above 7.00; in test [2] it was 5.00 to 6.00.

With `O=C(c1ccsc1)n1nc(-c2ccn(Cc3cccnc3)c(=O)c2)cc1NCc1ccc(Cl)s1` [Entry 25, 4-(5-[(5-chlorothiophen-2-yl)methyl]amino-1-(thiophene-3-carbonyl)-1H-pyrazol-3-yl)-1-(pyridin-3-ylmethyl)-1,2-dihydropyridin-2-one], the pIC50 in test [1] and in test [2] was above 7.00 each time.

On to `O=C(c1ccsc1)n1nc(-c2cc(Br)c[nH]c2=O)cc1NCc1ccc(Cl)s1` [Entry 41, 5-bromo-3-(5-[(5-chlorothiophen-2-yl)methyl]amino-1-(thiophene-3-carbonyl)-1H-pyrazol-3-yl)-1,2-dihydropyridin-2-one], for which the negative logarithm of the IC50 (pIC50) in test [1] was above 7.00; in test [2], 6.00 to 7.00.

Consider `O=C(c1ccoc1)n1nc(-c2ccn(CCN3CCOCC3)c(=O)c2)cc1NCc1ccc(Cl)s1` [Entry 21, 4-(5-[(5-chlorothiophen-2-yl)methyl]amino-1-(furan-3-carbonyl)-1H-pyrazol-3-yl)-1-[2-(morpholin-4-yl)ethyl]-1,2-dihydropyridin-2-one], for which the values for the pIC50 in test [1] and in test [2] were above 7.00 and 6.00 to 7.00, respectively.

For `O=c1cc(-c2cc(NCc3ccc(Cl)s3)[nH]n2)cc[nH]1` [Entry 29, 4-(5-[(5-chlorothiophen-2-yl)methyl]amino-1H-pyrazol-3-yl)-1,2-dihydropyridin-2-one], the pIC50 in test [1] and in test [2] was below 4.00 each time.

Consider `CC(C)(C)C(=O)n1nc(-c2ccn(Cc3cccnc3)c(=O)c2)cc1NCc1ccc(Cl)s1` [Entry 11, 4-(5-[(5-chlorothiophen-2-yl)methyl]amino-1-(2,2-dimethylpropanoyl)-1H-pyrazol-3-yl)-1-(pyridin-3-ylmethyl)-1,2-dihydropyridin-2-one], for which the pIC50 in test [1] is above 7.00; in test [2], 6.00 to 7.00.

As for `CC(C)(C)C(=O)n1nc(-c2cc(Br)[nH]c(=O)c2)cc1NCc1ccc(Cl)s1` [Entry 48, 6-bromo-4-(5-[(5-chlorothiophen-2-yl)methyl]amino-1-(2,2-dimethylpropanoyl)-1H-pyrazol-3-yl)-1,2-dihydropyridin-2-one], the pIC50 in test [1] is above 7.00; in test [2], 4.00 to 5.00.

In the case of `CC(C)(C)C(=O)n1nc(-c2cc(Br)cn(CC(=O)N3CCOCC3)c2=O)cc1NCc1ccc(Cl)s1` [Entry 40, 5-bromo-3-(5-[(5-chlorothiophen-2-yl)methyl]amino-1-(2,2-dimethylpropanoyl)-1H-pyrazol-3-yl)-1-[2-(morpholin-4-yl)-2-oxoethyl]-1,2-dihydropyridin-2-one], the pIC50 in test [1] is above 7.00; in test [2], 5.00 to 6.00.
